Data reported in the supplement of paper PMC10307832.

Columns and labels:
Assay in all cases: relative viability (nuclei count vs DMSO), 5 days (fraction); higher = more cells survive
AZ3146 + Pemetrexed = compound: CN1CCC(CC1)OC2=CC(=C(C=C2)NC3=NC=C4C(=N3)N(C(=O)N4C)C5CCCC5)OC [AZ3146] + Nc1nc2[nH]cc(CCc3ccc(C(=O)N[C@@H](CCC(=O)O)C(=O)O)cc3)c2c(=O)[nH]1 [Pemetrexed] (partner 0.2 µM)
Outline: (§1)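 Cells from lung cancer lines were seeded into 1536-well plates and, one day later, dosed by pin tool. Treatments were either a single drug or a fixed dose of an anchor drug with five library-drug doses (not always all listed) in √10 steps. After 5 days, nuclei were stained in a one-step fixation (final 0.05% Triton X-100, 1% formaldehyde, 1 ug/ml Hoechst) and counted on 4× images, and relative viability is the treated-to-vehicle nuclei ratio, as the median of duplicate plates.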

GSK-J4 + Palbociclib = compound: CCOC(=O)CCNc1cc(N2CCc3ccccc3CC2)nc(-c2ccccn2)n1 [GSK-J4] + CC(=O)c1c(C)c2cnc(Nc3ccc(N4CCNCC4)cn3)nc2n(C2CCCC2)c1=O [Palbociclib] (partner 0.5 µM)
Outline: as §1

GSK-J4 + Alpelisib = compound: CCOC(=O)CCNc1cc(N2CCc3ccccc3CC2)nc(-c2ccccn2)n1 [GSK-J4] + Cc1nc(NC(=O)N2CCC[C@H]2C(N)=O)sc1-c1ccnc(C(C)(C)C(F)(F)F)c1 [Alpelisib] (partner 2 µM)
Outline: as §1

AZ3146 + Pictilisib = compound: CN1CCC(CC1)OC2=CC(=C(C=C2)NC3=NC=C4C(=N3)N(C(=O)N4C)C5CCCC5)OC [AZ3146] + CS(=O)(=O)N1CCN(Cc2cc3nc(-c4cccc5[nH]ncc45)nc(N4CCOCC4)c3s2)CC1 [Pictilisib] (partner 1 µM)
Outline: as §1

| Cell Line | relative viability (AZ3146 + Pemetrexed; first compound 0.08 µM) | relative viability (AZ3146 + Pemetrexed; first compound 0.253 µM) | relative viability (AZ3146 + Pemetrexed; first compound 0.8 µM) | relative viability (AZ3146 + Pemetrexed; first compound 2.53 µM) | relative viability (AZ3146 + Pemetrexed; first compound 8 µM) | relative viability (GSK-J4 + Palbociclib; first compound 0.5 µM) | relative viability (GSK-J4 + Palbociclib; first compound 1.581 µM) | relative viability (GSK-J4 + Palbociclib; first compound 5 µM) | relative viability (GSK-J4 + Palbociclib; first compound 15.81 µM) | relative viability (GSK-J4 + Palbociclib; first compound 50 µM) | relative viability (GSK-J4 + Alpelisib; first compound 0.5 µM) | relative viability (GSK-J4 + Alpelisib; first compound 1.581 µM) | relative viability (GSK-J4 + Alpelisib; first compound 5 µM) | relative viability (GSK-J4 + Alpelisib; first compound 15.81 µM) | relative viability (GSK-J4 + Alpelisib; first compound 50 µM) | relative viability (AZ3146 + Pictilisib; first compound 0.253 µM) | relative viability (AZ3146 + Pictilisib; first compound 0.8 µM) | relative viability (AZ3146 + Pictilisib; first compound 2.53 µM) | relative viability (AZ3146 + Pictilisib; first compound 8 µM) | relative viability (AZ3146 + Pictilisib; first compound 0.08 µM) |
| --- | --- | --- | --- | --- | --- | --- | --- | --- | --- | --- | --- | --- | --- | --- | --- | --- | --- | --- | --- | --- |
| NCI-H2342 | 0.69 | 0.821 | 0.807 | 0.756 | 0.752 | 0.646 | 0.48 | 0.596 | 0.507 | 0.678 | – | – | – | – | – | – | – | – | – | – |
| NCI-H1944 | 0.484 | 0.616 | 0.636 | 0.646 | 0.705 | 0.378 | 0.334 | – | 0.274 | 0.342 | 0.833 | 0.709 | 0.964 | 0.897 | 0.822 | 0.34 | 0.323 | 0.376 | 0.364 | – |
| SK-LU-1 | 0.921 | 1.03 | 0.961 | 1.06 | 0.879 | 0.362 | 0.421 | 0.346 | 0.336 | 0.295 | 0.927 | 0.885 | 0.661 | 0.834 | 0.565 | 0.507 | 0.693 | 0.651 | 0.535 | 0.571 |
| HCC-44 | 0.601 | 0.654 | 0.687 | 0.698 | 0.654 | 0.933 | 0.916 | 0.989 | 0.979 | 1.03 | 0.791 | 0.781 | 0.709 | 0.776 | 0.711 | 0.528 | 0.815 | 0.618 | 0.472 | 0.543 |
| 201T | 0.275 | 0.328 | 0.32 | 0.331 | 0.303 | 0.359 | 0.358 | 0.361 | 0.326 | 0.352 | 0.977 | 0.831 | 1.02 | 0.988 | 0.9 | 0.643 | 0.656 | 0.707 | 0.596 | 0.634 |
| IA-LM | – | – | – | – | – | – | – | – | – | – | 0.77 | 0.693 | 0.887 | 0.693 | 0.149 | 0.425 | 0.354 | 0.381 | 0.225 | 0.306 |
| NCI-H661 | 0.939 | 0.894 | 0.956 | 0.92 | 0.818 | 0.41 | 0.38 | 0.388 | 0.409 | 0.361 | 0.727 | 0.602 | 0.578 | 0.5 | 0.53 | 0.417 | 0.34 | 0.463 | 0.446 | 0.489 |
| NCI-H2087 | 0.648 | 0.683 | 0.684 | 0.67 | 0.661 | 0.256 | 0.243 | 0.282 | 0.24 | 0.227 | 0.988 | 1.17 | – | 0.933 | 0.745 | 0.926 | 0.669 | 0.968 | 0.847 | 1.14 |
| NCI-H647 | 0.22 | 0.178 | 0.188 | 0.204 | 0.115 | 0.404 | 0.348 | 0.358 | 0.411 | 0.471 | 1.22 | 1.03 | 0.927 | 1.05 | 0.975 | 0.423 | 0.258 | 0.366 | 0.476 | 0.485 |
| A-427 | 0.898 | 0.923 | 0.976 | 0.926 | 0.766 | 0.507 | 0.439 | – | 0.511 | 0.443 | 1 | – | 1.17 | 1.08 | 0.561 | 0.626 | 0.65 | 0.519 | 0.675 | 0.826 |
| NCI-H520 | 0.843 | 0.735 | 0.647 | 0.543 | 0.422 | 0.231 | 0.113 | 0.223 | 0.167 | 0.163 | 0.899 | 0.781 | 1.2 | 0.868 | 0.834 | 0.287 | 0.303 | 0.284 | 0.31 | 0.255 |
| NCI-H1755 | 0.666 | 0.532 | 0.463 | 0.509 | 0.496 | 0.43 | 0.336 | 0.456 | 0.447 | 0.408 | 0.897 | 0.763 | 1.02 | 0.915 | 0.852 | 0.433 | 0.359 | 0.441 | 0.442 | 0.421 |
| NCI-H1975 | 0.312 | 0.311 | 0.294 | 0.295 | 0.244 | 0.543 | 0.498 | 0.613 | 0.524 | 0.634 | 0.615 | 0.613 | – | 0.678 | 0.837 | 0.343 | 0.305 | 0.303 | 0.304 | 0.266 |
| ChaGo-K-1 | 0.562 | 0.248 | 0.254 | 0.258 | 0.248 | 0.934 | – | 0.967 | 0.889 | 0.845 | – | – | – | – | – | 0.668 | 0.645 | 0.824 | 0.596 | 0.746 |
| BEN | – | 0.641 | 0.651 | 0.75 | 0.8 | 0.476 | 0.314 | 0.465 | 0.419 | 0.457 | 1.04 | 0.882 | – | 0.974 | 0.948 | 0.51 | 0.403 | 0.533 | 0.573 | – |
| SW 1573 | 0.815 | 0.844 | 0.861 | 0.82 | 0.228 | 0.38 | 0.336 | 0.347 | 0.382 | 0.237 | 0.669 | 0.715 | 0.718 | 0.721 | 0.454 | 0.539 | 0.507 | 0.633 | 0.443 | 0.457 |
| EPLC-272H | 0.366 | 0.369 | 0.37 | 0.341 | 0.396 | 0.342 | 0.327 | 0.371 | 0.309 | 0.33 | 0.887 | – | 0.845 | 0.933 | 0.943 | 0.322 | 0.3 | 0.263 | 0.265 | 0.274 |
